The values below come from paper PMC3949714 (PLoS ONE, 2014).

Like-named read-outs stand apart in the source and are kept apart here. Where no end group is shown, it is not given here.

In series [1] the target is T1, mu-opioid receptors (MOR) (Mus musculus, UniProt P42866).
T1 construct: FLAG; expressed in transfected cells
Description: cell-based. The class given is cell-based, murine.

For series [2], the target named is T2, delta-opioid receptors (DOR).
T2 construct: expressed in transfected cells
Type of series: cell-based. Conditions: read-out: IC50 for the inhibition of forskolin induced cAMP in HEK-DOP cells.

Series [3] is described as follows: RP-HPLC retention time (read by the paper as polarity). The class given is physicochemical. The following applies: water/acetonitrile gradient with 0.1% formic acid, MS TIC detection. On the procedure: An Agilent binary HPLC composing of an Agilent 1100 LC pump, an Agilent 1100 well plate auto-sampler (Agilent Technologies, Santa Clara, CA, USA) and a Jupiter 5 μ (C4, 300 A, 150×2.00 mm, 5 μ) RP HPLC column (Phenomenex, Torrance, CA, USA) were used for separation. The mobile phase flow rate was 200 µl/min and the volume of injection was 20 µL. The separations were performed using a binary solvent gradient; water (Milli-Q; Millipore Corporation, Bedford, MA) which contained 0.1% v/v formic acid was used as the solvent A and acetonitrile (Merck KGaA, Darmstadt, Germany) which contained 0.1% v/v formic acid (Nuplex industries Pty Ltd. (NSW, Australia) was used as the solvent B. The chromatographic separation was achieved using the gradient shown in Table 1.
An API 3000 tandem mass spectrometer equipped with a turbo ion spray was used as the detector. Detection was performed in total ion current (TIC) mode (MS1/Q1), in positive mode, within the range 200–3000 amu. The data were acquired and processed by Analyst 1.5 software (Applied Biosystems, Foster city, CA, USA). Mass spectra were obtained using: declustering potential (DF) of 16 V, focusing potential (FP) of 120 V, Entrance potential (EP) of 10 V, and Ion spray voltage (IS) of 5000 V. Structure identity of fragments was performed using the respective mass/charge (m/z) values of each peptide metabolite. Direct flow injections were carried out using Model 11 plus Harvard Syringe pump (Harvard Apparatus Inc, Holliston, MA, USA).

Series [4] is described as follows: Biotransformation in homogenised inflamed tissue at pH 5.5 (LC/MS, mean residence time). Conditions: for MRT: 120 min, AUMC/AUC of LC/MS peak intensity.
[5] abbreviates: incubation of BE 1-31, Jupiter C4 300 A column, 200 µl/min.
The mark [6] stands for this setting: incubation of BE 1-31 (115 µM) in rat inflamed tissue homogenate, MES pH 5.5, 37°C.
Where [7] appears, read: incubation of BE 1-17, Jupiter C4 column.
Where [8] appears, read: incubation of BE 1-17 (115 µM) in rat inflamed tissue homogenate, MES pH 5.5, 37°C.
Where [9] appears, read: incubation of BE 1-13, Jupiter C4 column.
The mark [10] stands for this setting: incubation of BE 1-13 (115 µM) in rat inflamed tissue homogenate, MES pH 5.5, 37°C.
The mark [11] stands for this setting: rat inflamed tissue homogenate, MES pH 5.5, 37°C, 115 µM peptide, LC/MS.

T1 sequence (P42866 whole entry): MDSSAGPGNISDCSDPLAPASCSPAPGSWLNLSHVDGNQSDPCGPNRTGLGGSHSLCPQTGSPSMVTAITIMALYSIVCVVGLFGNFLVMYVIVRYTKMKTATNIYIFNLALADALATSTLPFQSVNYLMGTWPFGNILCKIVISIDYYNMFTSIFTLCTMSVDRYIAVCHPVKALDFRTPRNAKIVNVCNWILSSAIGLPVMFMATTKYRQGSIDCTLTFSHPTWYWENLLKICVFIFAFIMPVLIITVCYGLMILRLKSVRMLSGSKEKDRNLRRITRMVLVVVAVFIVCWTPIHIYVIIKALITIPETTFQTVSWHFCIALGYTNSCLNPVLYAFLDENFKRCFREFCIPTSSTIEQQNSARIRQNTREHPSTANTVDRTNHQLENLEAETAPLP

On to `C=CCN1C[C@H](C)N([C@H](c2ccc(C(=O)N(CC)CC)cc2)c2cccc(OC)c2)C[C@H]1C` [SNC 80, 4-[(R)-[(2S,5R)-4-allyl-2,5-dimethylpiperazin-1-yl](3-methoxyphenyl)methyl]-N,N-diethylbenzamide, reference compound], for which the half-inhibitory concentration (IC50) – broadly, the concentration that gives 50% inhibition – in series [1] (Table 2 as titled, 20000 cells/well, FSK 100 µM, 0.3 nM to 1 µM in half log intervals, 30 min, Alphascreen, one-site fit, at least three independent experiments, read-out: IC50 for the inhibition of forskolin induced cAMP in HEK-MOP cells) was found to be 8.1 nM.
With “YGGFMTSEKSQTPLVTLFKNAIIKNVHKKGQ [BE 1–31, Beta-endorphin]”, the “Effect of naloxone pre-treatment on cAMP inhibition through MOR” value (“Effect … on cAMP inhibition through MOR” for short) in series [1] is “inhibited by naloxone”. The figures for the IC50 in series [1] and in series [2] were 24 nM and 57 nM, respectively. This molecule showed an RT in series [3] (setting [5]) of 25.8 min. Besides, the MRT in series [4] (setting [6]) was found to be 2.9. Also, the “Peak intensity observed (remaining) at 15 min” value in series [4] (rat inflamed paw tissue homogenate (1 g/10 ml MES buffer) pH 5.5, 37°C, 115 µM peptide, LC/MS) stood at 7.5%.
Turning to YGGFMTSEK [BE 1–9], the “Agonist character at MOR (extent of cAMP inhibition)” value in series [1] is reported as “partial agonist”. The values for the RT in series [3] (setting [7]) and in series [3] (setting [5]) were 18.13 min and 20.2 min, respectively. The MRT in series [4] (setting [8]) is recorded as 28; in series [4] (setting [6]) it was 11.4.
“BE 3-16: beta-endorphin fragment, residues 3-16 (GFMTSEKSQTPLVT; Beta-endorphin; UniProt P01189 239-252, looked up, fragment)” gave an RT in series [3] (setting [7]) of 20.43 min. The MRT in series [4] (setting [8]) is reported as 11.
The molecule “BE 10-24: beta-endorphin fragment, residues 10-24 (SQTPLVTLFKNAIIK; Beta-endorphin; UniProt P01189 246-260, looked up, fragment)” showed an RT in series [3] (setting [5]) of 28.2 min. In series [4] (setting [6]), the MRT is recorded as 11.3.
Regarding YGGFMTSEKSQTP [BE 1–13], the “Effect … on cAMP inhibition through MOR” value in series [1] was “inhibited by naloxone”. In addition, the IC50 in series [2] was 59 nM. The Rt in series [3] (setting [9]) was determined as 18.4 min; in series [3] (incubation of BE 1-13, Jupiter C4 column, listed as BE 1-13), 18.5 min. Besides, the RT in series [3] (setting [7]) worked out at 18.6 min; in series [3] (incubation of BE 1-17, Jupiter C4 column, listed as BE 1-13), 18.78 min; in series [3] (setting [5]), 20.9 min. In series [4] (formed during incubation of BE 1–31, pH 5.5, 37°C), the “Time present as metabolite within inflamed tissue homogenates” value is listed as “over 1 hour”. Besides, the MRT in series [4] (setting [10]) was found to be 8.3; in series [4] (setting [8]) it was 21.7; in series [4] (setting [6]) it was 44. Further, the “Time for which the peptide was detected in inflamed tissue homogenates” value in series [4] (setting [11]) was determined as 30 min.
For the molecule “BE 20-29: beta-endorphin fragment, residues 20-29 (NAIIKNAYKK; Beta-endorphin; UniProt P01189 256-265, looked up, fragment)”, in series [3] (setting [5]), the RT was 14.3 min. Also, in series [4] (setting [6]), the MRT is 8.4.
Consider “BE 2-14: beta-endorphin fragment, residues 2-14 (GGFMTSEKSQTPL; Beta-endorphin; UniProt P01189 238-250, looked up, fragment)”, for which the RT in series [3] (setting [7]) came to 20.1 min; in series [3] (setting [5]) it was 22.2 min. The values for the MRT in series [4] (setting [8]) and in series [4] (setting [6]) were 18.9 and 25.1, respectively.
Consider YGGFMTSEKSQ [BE 1–11], for which the “Effect … on cAMP inhibition through MOR” value in series [1] was “inhibited by naloxone”. For the same molecule, the IC50 in series [2] was 18 nM. Also, the Rt in series [3] (incubation of BE 1-11, Jupiter C4 column) is given as 17.4 min; in series [3] (setting [9]), 17.4 min. In addition, the RT in series [3] (setting [7]) came out at 17.58 min; in series [3] (setting [5]), 19.96 min. The MRT in series [4] (incubation of BE 1-11 (115 µM) in rat inflamed tissue homogenate, MES pH 5.5, 37°C) worked out at 11; in series [4] (setting [10]), 10.5; in series [4] (setting [8]), 17.2; in series [4] (setting [6]) it was 57.8. For the same molecule, in series [4] (setting [11]), the “Incubation period after which the peptide was undetectable” value stood at 30 min.
Turning to “BE 4-13: beta-endorphin fragment, residues 4-13 (FMTSEKSQTP; Beta-endorphin; UniProt P01189 240-249, looked up, fragment)”, in series [3] (setting [9]), the Rt is reported as 15.7 min. Besides, in series [3] (setting [7]), the RT is on record as 15.67 min. In series [4] (setting [10]), this molecule showed an MRT of 18.
Turning to “BE 1-16: beta-endorphin N-terminal fragment, residues 1-16 (YGGFMTSEKSQTPLVT; Beta-endorphin; UniProt P01189 237-252, looked up, fragment)”, the figures for the RT in series [3] (setting [7]) and in series [3] (setting [5]) were 21.38 min and 23.2 min, respectively. Also, the MRT was 7.6 in series [4] (setting [8]) and 9.8 in series [4] (setting [6]).
In the case of YGGFMTSEKSQTPLVTLFKN [BE 1–20], the “Effect … on cAMP inhibition through MOR” value in series [1] was “inhibited by naloxone”. Besides, the figures for the 50% inhibitory concentration (IC50) in series [1] (read-out: IC50 for the inhibition of forskolin induced cAMP in HEK-MOP cells) and in series [2] were 5 nM and 55 nM, respectively. Also, the RT in series [3] (setting [5]) is 25.2 min. The MRT in series [4] (setting [6]) stood at 34.2.
Take “BE 3-17: beta-endorphin fragment, residues 3-17 (GFMTSEKSQTPLVTL; Beta-endorphin; UniProt P01189 239-253, looked up, fragment)”: in series [3] (setting [7]), the RT was 24 min. Moreover, the MRT in series [4] (setting [8]) turned out to be 6.2.
Regarding “BE 18-31: beta-endorphin fragment, residues 18-31 (FKNAIIKNAYKKGE; Beta-endorphin; UniProt P01189 254-267, looked up, fragment)”, the RT in series [3] (setting [5]) is reported as 16.1 min. In addition, the MRT in series [4] (setting [6]) is on record as 18.1.
Regarding “BE 6-16: beta-endorphin fragment, residues 6-16 (TSEKSQTPLVT; Beta-endorphin; UniProt P01189 242-252, looked up, fragment)”, the RT amounted to 16 min in series [3] (setting [7]) and 18.4 min in series [3] (setting [5]). In series [4] (setting [6]), this molecule gave an MRT of 22.4.
In series [3] (setting [5]), “BE 20-27: beta-endorphin intermediate fragment, residues 20-27 (NAIIKNAY; Beta-endorphin; UniProt P01189 256-263, looked up, fragment)” had an RT of 16.1 min. The same molecule showed an MRT in series [4] (setting [6]) of 97.1.
As to “BE 5-16: beta-endorphin fragment, residues 5-16 (MTSEKSQTPLVT; Beta-endorphin; UniProt P01189 241-252, looked up, fragment)”, the RT in series [3] (setting [7]) was 16.92 min. In series [4] (setting [8]), this molecule gave an MRT of 13.2.
In series [3] (setting [5]), “BE 10-31: beta-endorphin fragment, residues 10-31 (SQTPLVTLFKNAIIKNAYKKGE; Beta-endorphin; UniProt P01189 246-267, looked up, fragment)” returned an RT of 24.9 min. Moreover, in series [4] (setting [6]), the MRT worked out at 29.
For “BE 20-28: beta-endorphin intermediate fragment, residues 20-28 (NAIIKNAYK; Beta-endorphin; UniProt P01189 256-264, looked up, fragment)”, in that order: 16.1 min and 87.6.
As for “BE 1-15: beta-endorphin N-terminal fragment, residues 1-15 (YGGFMTSEKSQTPLV; Beta-endorphin; UniProt P01189 237-251, looked up, fragment)”, the RT in series [3] (setting [7]) is recorded as 22.33 min; in series [3] (setting [5]), 24.2 min. Further, the MRT in series [4] (setting [8]) was found to be 8.3; in series [4] (setting [6]), 12.
In turn, “BE 19-30: beta-endorphin fragment, residues 19-30 (KNAIIKNAYKKG; Beta-endorphin; UniProt P01189 255-266, looked up, fragment)” returned an RT in series [3] (setting [5]) of 14.3 min. The molecule also showed an MRT in series [4] (setting [6]) of 72.2.
Take “BE 15-24: beta-endorphin fragment, residues 15-24 (VTLFKNAIIK; Beta-endorphin; UniProt P01189 251-260, looked up, fragment)”: in series [3] (setting [5]), the RT is reported as 22.44 min. Besides, in series [4] (setting [6]), the MRT is listed as 25.2.
